The text below walks through data of patent US4755594A, “N^6 -substituted adenosines” (Warner-Lambert Company, priority 1986, dated 1988).

Data set [1] deals with T1, adenosine A1 receptor (Rattus norvegicus, UniProt P25099).
T1 construct: Whole brain minus cerebellum and brainstem from male Long-Evans rats; from tissue; host or cells: whole brain minus cerebellum and brainstem, male Long-Evans rats
T1 sequence (P25099 1-326): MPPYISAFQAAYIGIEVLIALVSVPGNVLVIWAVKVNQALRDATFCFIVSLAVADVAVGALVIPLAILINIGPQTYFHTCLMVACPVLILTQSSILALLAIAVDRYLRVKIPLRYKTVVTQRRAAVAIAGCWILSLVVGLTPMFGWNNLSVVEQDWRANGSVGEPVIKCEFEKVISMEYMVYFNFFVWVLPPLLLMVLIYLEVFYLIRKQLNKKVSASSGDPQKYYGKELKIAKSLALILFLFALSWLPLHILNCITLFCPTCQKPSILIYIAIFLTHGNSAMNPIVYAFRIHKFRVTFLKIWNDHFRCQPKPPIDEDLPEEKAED
Put plainly: Adenosine Receptor Binding--A1 Receptor Affinity (RBA1), [3H]-CHA, whole brain membranes. The note with it: read-out: RBA-1 IC50. The protocol:
Adenosine Receptor Binding--A1 Receptor Affinity (RBA1 )
Whole brain minus cerebellum and brainstem from male Long-Evans rats (150-200 g) was homogenized in 30 volumes of ice-cold 0.05M Tris-HCl buffer pH 7.7 using a Brinkman Polytron PT-10, (setting number 6 for 20 seconds) and centrifuged for ten minutes at 20,000 xg (Sorvall RC-2), 4° C. The supernatant was discarded, and the pellet was resuspended and centrifuged as before. The pellet was resuspended in 20 ml Tris-HCl buffer containing two International Units/ml of adenosine deaminase (Sigma type III from calf intestinal mucosa), incubated at 37° C. for 30 minutes, then subsequently at 0° C. for ten minutes. The homogenate was again centrifuged, and the final pellet was resuspended in ice-cold 0.05M Tris-HCl buffer pH 7.7 to a concentration of 20 mg/ml original wet tissue weight and used immediately.
Tissue homogenate (10 mg/ml) was incubated in 0.05M Tris-HCl buffer pH 7.7 containing 1.0 nM [^3 H]--N^6 -cyclohexyladenosine ([^3 H]--CHA) with or without test agents in triplicate for one hour at 25° C. Incubation volume was 2 ml. Unbound [^3 H]--CHA was separated by rapid filtration under reduced pressure through Whatman glass fiber (GF/B) filters. The filters were rinsed three times with 5 ml of ice cold 0.05M Tris-HCl buffer pH 7.7. The radio-labeled ligand retained on the filter was measured by liquid scintillation spectrophotometry after shaking the filters for one hour or longer on a mechanical shaker in 10 ml of Beckman Ready-Solv HP scintillation cocktail.
Nonspecific binding was defined as the binding which occurred in the presence of 1 mM theophylline. The concentration of test agent which inhibited 50% of the specific binding (IC50) was determined by nonlinear computer curve fit. The Scatchard plot was calculated by linear regression of the line obtained by plotting the amount of radioligand bound (pmoles/gram of tissue) [formula] Since the amount of radioligand bound was a small fraction of the total amount added, free radioligand was defined as the concentration of (nM) of radioligand added to the incubation mixture. The Hill coefficient was calculated by linear regression of the line obtained by plotting the log of the bound radioligand vs the log of the [formula] The maximal number of binding sites (Bmax) was calculated from the Scatchard plot.

For data set [2], the target named is T2, adenosine A2 receptor (Rattus norvegicus, UniProt P30543).
T2 construct: Brains were thawed and then kept on ice while the striata were dissected out; tissue Pel-Freez (Rogers, Ark.); host or cells: striata of Sprague-Dawley rats (Long-Evans hooded rats gave essentially identical results)
Put plainly: Adenosine Receptor Binding--A2 Receptor Affinity (RBA2), [3H]NECA, striatal membranes. The note with it: read-out: RBA-2 IC50. The protocol: Adenosine Receptor Binding--A2 Receptor Affinity (RBA2)
Brains from 200-500 g mixed sex Sprague-Dawley rats were purchased from Pel-Freez (Rogers, Ark.). Fresh brains from male Long-Evans hooded rats (Blue Spruce Farms, Altamont, NY) gave essentially identical results. Brains were thawed and then kept on ice while the striata were dissected out. Striata were disrupted in 10 vol of ice-cold 50 mM Tris.HCl (pH 7.7 at 25° C., pH 8.26 at 5° C.) (Tris) for 30 seconds in a Polytron PT-10 (Brinkmann) at setting 5. The suspension was centrifuged at 50,000 xg for ten minutes, the supernatant discarded, the pellet resuspended in 10 vol ice-cold Tris as above, recentrifuged, resuspended at 1 g/5ml, and stored in plastic vials at -70° C. (stable for at least six months). When needed, tissue was thawed at room temperature, disrupted in a Polytron, and kept on ice until used.
All incubations were for 60 minutes at 25° C. in 12×75 mm glass tubes containing 1 ml Tris with 5 mg original tissue weight of rat weight of rat striatal membranes, 4 nM [^3 H]--N-ethyl adenosine-5'-carboxamide ([^3 H]NECA), 50 nM N^6 -cyclopentyladenosine (to eliminate A1 receptor binding), 10 mM MgCl2, 0.1 units/ml of adenosine deaminase and 1% dimethylsulfoxide. N^6 -Cyclopentyladenosine was dissolved at 10 mM in 0.02N HCl and diluted in Tris. Stock solutions and dilutions of N^6 -cyclopentyladenosine could be stored at -20° C. for several months. Test compounds were dissolved at 10 mM in dimethylsulfoxide on the same day as the experiment, and diluted in dimethylsulfoxide to 100×the final incubation concentration. Control incubations received an equal volume (10 μl) of dimethylsulfoxide; the resulting concentration of dimethylsulfoxide had no effect on binding. [^3 H]NECA was diluted to 40 nM in Tris. The membrane suspension (5 mg/0.79 ml) contained sufficient MgCl2 and adenosine deaminase to give 10 mM and 0.1 units/ml, respectively, final concentration in the incubation. […] After all additions, the rack of tubes was vortexed, and the tubes were then incubated for 60 min at 25° C. in a shaking water bath. The rack of tubes was vortexed an additional time halfway through the incubation.
Incubations were terminated by filtration through 2.4 cm GF/B filters under reduced pressure. Each tube was filtered as follows: the contents of the tube were poured on the filter, 4 ml of ice-cold Tris were added to the tube and the contents poured onto the filter, and the filter was washed twice with 4 ml of ice-cold Tris. The filtration was complete in about twelve seconds. Filters were put in scintillation vials, 8 ml of Formula 947 scintillation fluid added, and the vials left overnight, shaken, and counted in a liquid scintillation counter at 40% efficiency.
Nonspecific binding was defined as binding in the presence of 100 μM N^6 -cyclopentyladenosine, and specific binding was defined as total binding minus nonspecific binding. The IC50 was calculated by weighted nonlinear least squares curve-fitting to the mass-action equation. [formula] where Y is cpm bound
T is cpm total binding without drug
S is cpm specific binding without drug
D is the concentration of drug and
K is the IC50 of the drug
Weighting factors were calculated under the assumption that the standard deviation was proportional to the predicted value of Y. Nonspecific binding was treated as a very large (infinite) concentration of drug in the computer analysis.

Data set [3] is described as follows: Activity and screen test, rat orally: inhibition of motor activity. In kind it is in vivo. The note with it: orally (PO).
A short description of data set [4]: Activity and screen test, rat orally: screen test. In kind it is in vivo. As to conditions: orally (PO). The method, then:
A two part testing procedure is started one hour postinjection. First, the screen test (ST) is performed (see Pharmac. Biochem. Behav. 6, 351-353, 1977). Briefly this test consists of placing mice on individual wire screens which are then rotated 180 degrees at the start of a 60 second observation period. The number of mice falling off the inverted screen is recorded.
The data obtained from the screen test are expressed as percent of mice falling off the screen. Data derived from locomotor activity of drug treated mice are compared to the activity of vehicle treated animals and are expressed as percent inhibition of spontaneous locomotion. All percentages reported for inhibition of locomotion (LI) are based upon data accumulated for one hour. Both phases of testing are graded: A=60-100%; C=31-59%; and N=0-30%. An overall dose rating is obtained by the following criteria: […]

pIC50: −log10 of the molar value.

T2 sequence (P30543 whole entry): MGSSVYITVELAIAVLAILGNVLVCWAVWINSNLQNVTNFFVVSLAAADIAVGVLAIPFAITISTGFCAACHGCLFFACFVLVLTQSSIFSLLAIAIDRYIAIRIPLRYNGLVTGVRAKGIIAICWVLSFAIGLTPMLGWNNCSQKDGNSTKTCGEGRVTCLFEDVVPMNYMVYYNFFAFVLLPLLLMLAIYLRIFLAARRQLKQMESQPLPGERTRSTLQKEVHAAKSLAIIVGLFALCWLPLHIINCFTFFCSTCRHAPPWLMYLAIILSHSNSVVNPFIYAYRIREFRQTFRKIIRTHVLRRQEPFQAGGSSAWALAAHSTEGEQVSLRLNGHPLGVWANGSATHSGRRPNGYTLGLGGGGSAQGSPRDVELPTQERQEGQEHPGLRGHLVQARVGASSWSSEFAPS

Usually pIC50 stands for the negative decadic logarithm of the IC50, by convention in mol/L. For `[O-][n+]1cnc2c(ncn2[C@@H]2O[C@H](CO)[C@@H](O)[C@H]2O)c1NCC1(c2ccccc2)CC1` [Example 4, N6-((1-Phenylcyclopropyl)methyl)adenosine-N1-oxide], the pIC50 was 5.19 in data set [1] and 4.46 in data set [2]. The figures for the “Inhibition of motor activity” value in data set [3] (1 mg/kg), in data set [3] (3 mg/kg) and in data set [3] (10 mg/kg) were 2%, 15% and 2%, respectively. The “Inhibition of screen test failure” value came to 11% in data set [4] (1 mg/kg), 0% in data set [4] (3 mg/kg) and 0% in data set [4] (10 mg/kg).
